This is an account of results in US20110098296A1, “Thiazole And Oxazole Kinase Inhibitors” (priority 2007, published 2011).

Assay [1] deals with HN5 tumor cells. Nature of the assay: Method C: Cell Growth Inhibition Assay (CellTiter-Glo), HN5. Type of assay: cell-based. Particulars: Homo sapiens, 72 h, 3 days, 4-parameter fit. Put shortly: (§1)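 Cells were seeded at 500 per well and dosed the next day with nine serial 1:3 compound dilutions (0.2% DMSO final), then grown 3 days at 37° C, 5% CO2. ATP was measured by CellTiter-Glo luminescence, and IC50 was interpolated by 4-parameter fit of percent inhibition versus DMSO controls.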
Background: ATP-based viability assays read luminescence as a measure of living cells.

Assay [2] deals with SK-MEL-28 tumor cells. Briefly: Method C: Cell Growth Inhibition Assay (CellTiter-Glo), SK-MEL-28. Type of assay: cell-based. To be noted: Homo sapiens, SK-MEL-28, 72 h, 3 days, 4-parameter fit. A digest of the protocol: as §1

A value given as a limit tells only on which side of the number the result lay.

As usually defined, the IC50 is the point on the concentration scale where inhibition reaches its midpoint. Low readings indicate greater potency in that assay, high ones weaker potency in that assay.

Turning to `COc1cc(Nc2nccc(-c3sc(N)nc3-c3cccc(NC(=O)c4c(F)cccc4F)c3)n2)cc(OC)c1OC` [Example 16, N-[3-(2-Amino-5-{2-[(3,4,5-trimethoxyphenyl)amino]pyrimidiN-4-yl}-1,3-thiazol-4-yl)phenyl]-2,6-difluorobenzamide], in assay [1], the 50% inhibitory concentration (IC50) was less than 100 nM.

`COc1ccc(Nc2nccc(-c3sc(N)nc3-c3cccc(NC(=O)c4c(F)cccc4F)c3)n2)cc1N1CCNCC1` [Example 18, N-[3-(2-Amino-5-{2-[(4-methoxy-3-piperaziN-1-ylphenyl)amino]pyrimidiN-4-yl}-1,3-thiazol-4-yl)phenyl]-2,6-difluorobenzamide] yielded a half-inhibitory concentration (IC50) in assay [2] greater than 1000 nM.

As for `Cc1cc(-c2sc(N)nc2-c2cccc(NC(=O)c3c(F)cccc3F)c2)nc(Nc2cccc(F)c2)n1` [Example 48, N-[3-(2-Amino-5-{2-[(3-fluorophenyl)amino]-6-methyl-4-pyrimidinyl}-1,3-thiazol-4-yl)phenyl]-2,6-difluorobenzamide], the IC50 in assay [1] was greater than 1000 nM.

Consider `CCNc1nc(-c2cccc(NC(=O)C3CC3)c2)c(-c2ccnc(Nc3ccc(OCCN4CCCC4)c(Cl)c3)n2)s1` [Example 63, N-{3-[5-{2-[(3-Chloro-4-{[2-(1-pyrrolidinyl)ethyl]oxy}phenyl)amino]-4-pyrimidinyl}-2-(ethylamino)-1,3-thiazol-4-yl]phenyl}cyclopropanecarboxamide], for which the IC50 is greater than 1000 nM in assay [2] and 100 to 1000 nM in assay [1].

Take `Nc1nc(-c2cccc(C(=O)Nc3c(F)cccc3F)c2)c(-c2ccnc(Nc3cccc(CN4CCCC4)c3)n2)s1` [Example 77, 3-[2-Amino-5-(2-{[3-(1-pyrrolidinylmethyl)phenyl]amino}-4-pyrimidinyl)-1,3-thiazol-4-yl]-N-(2,6-difluorophenyl)benzamide]: the half-maximal inhibitory concentration (IC50) is greater than 1000 nM in assay [2] and 100 to 1000 nM in assay [1].

Consider `Cc1nc(-c2cccc(NC(=O)c3c(F)cccc3F)c2)c(-c2ccnc(Nc3ccc(OCCN(C)C)c(Cl)c3)n2)s1` [Example 103, N-[3-(5-{2-[(3-Chloro-4-{[2-(dimethylamino)ethyl]oxy}phenyl)amino]-4-pyrimidinyl}-2-methyl-1,3-thiazol-4-yl)phenyl]-2,6-difluorobenzamide], for which the 50% inhibitory concentration (IC50) in assay [2] is greater than 1000 nM; in assay [1], less than 100 nM.

For `Cc1nc(-c2cccc(NC(=O)c3c(F)cccc3F)c2)c(-c2ccnc(Nc3ccc(OC4CCN(C(=O)OCc5ccccc5)CC4)c(F)c3)n2)s1` [Example 106], in assay [2], the IC50 is greater than 1000 nM.

In the case of `CCc1nc(-c2cccc(NC(=O)c3c(F)cccc3F)c2)c(-c2ccnc(Nc3cccc(CN4CCCC4)c3)n2)s1` [Example 115, N-{3-[2-Ethyl-5-(2-{[3-(1-pyrrolidinylmethyl)phenyl]amino}-4-pyrimidinyl)-1,3-thiazol-4-yl]phenyl}-2,6-difluorobenzamide], the IC50 in assay [2] is greater than 1000 nM; in assay [1] it was 100 to 1000 nM.

For `Cc1nc(-c2cccc(NC(=O)c3cc(F)ccc3F)c2)c(-c2ccnc(Nc3ccc(OCCN(C)C)c(Cl)c3)n2)o1` [Example 142], the IC50 in assay [2] is greater than 1000 nM; in assay [1] it was 100 to 1000 nM.
